In PubChem BioAssay AID248 (DTP/NCI, 2004):
Several values for one entry are separate records, joined by “and”; a condition that tells them apart may be missing. Equal values may be shown once. Toxic doses and inconclusive results are not listed. Rule as the data show it: active = T/C of 150% or more; inactive = T/C below 125%.

Test system: L1210 leukemia ip in BDF1 mice, survival T/C
Assay: NCI In Vivo Anticancer Drug Screen. Data for tumor model L1210 Leukemia (intraperitoneal) in B6D2F1 (BDF1) mice
Settings: endpoint: mean survival time, higher = longer survival
Summary of the method: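 Transplanted-tumor mice were given test agent; controls received vehicle only. Survival readings from the two groups were divided (treated over control).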

[1] = dose: 100.0 mg/kg/injection, schedule: Q01DX009 (ip), vehicle: Klucel (hydroxypropylcellulose) (HPC)
[2] = dose: 100.0 mg/kg/injection, schedule: Q04DX003 (ip), vehicle: Klucel (hydroxypropylcellulose) (HPC)
[3] = dose: 200.0 mg/kg/injection, schedule: Q01DX009 (ip), vehicle: Klucel (hydroxypropylcellulose) (HPC)
[4] = dose: 200.0 mg/kg/injection, schedule: Q04DX003 (ip), vehicle: Klucel (hydroxypropylcellulose) (HPC)
[5] = dose: 400.0 mg/kg/injection, schedule: Q01DX009 (ip), vehicle: Klucel (hydroxypropylcellulose) (HPC)
[6] = dose: 400.0 mg/kg/injection, schedule: Q04DX003 (ip), vehicle: Klucel (hydroxypropylcellulose) (HPC)
[7] = dose: 100.0 mg/kg/injection, schedule: Q01DX001 (ip), vehicle: saline
[8] = dose: 75.0 mg/kg/injection, schedule: Q01DX001 (ip), vehicle: saline
[9] = dose: 100.0 mg/kg/injection, schedule: Q04DX003 (ip), vehicle: saline with Tween-80
[10] = dose: 200.0 mg/kg/injection, schedule: Q04DX003 (ip), vehicle: saline with Tween-80
[11] = dose: 400.0 mg/kg/injection, schedule: Q04DX003 (ip), vehicle: saline with Tween-80

Measured: T/C

Nc1ccccc1SC1CC(=O)N(c2cccc(Cl)c2)C1=O (stereo not given)
inactive: [1] 91 % of control | [2] 94 % of control | [3] 92 % of control | [4] 95 % of control | [5] 91 % of control | [6] 94 % of control

Cc1ccccc1/[N+]([O-])=C/c1ccccc1
inactive: dose: 100.0 mg/kg/injection, schedule: Q01DX001 (ip), vehicle: Klucel (hydroxypropylcellulose) (HPC) 104 % of control | [2] 103 % of control | dose: 200.0 mg/kg/injection, schedule: Q01DX001 (ip), vehicle: Klucel (hydroxypropylcellulose) (HPC) 104 % of control | [3] 93 % of control | [4] 102 % of control | dose: 400.0 mg/kg/injection, schedule: Q01DX001 (ip), vehicle: Klucel (hydroxypropylcellulose) (HPC) 101 % of control | [5] 104 % of control | [6] 102 % of control

CN(NCc1ccccc1)C(=N)N
inactive: dose: 25.0 mg/kg/injection, schedule: Q04DX003 (ip), vehicle: saline 106 % of control | dose: 50.0 mg/kg/injection, schedule: Q04DX003 (ip), vehicle: saline 109 % of control | [7] 107 % of control | dose: 100.0 mg/kg/injection, schedule: Q04DX003 (ip), vehicle: saline 109 % of control

C/C(=C/C=C(c1ccccc1)c1ccccc1)C1CCC2C3CCC4CC5CCC4(C)C3(O5)C(=O)CC12C (stereo not given)
inactive: dose: 100.0 mg/kg/injection, schedule: Q04DX003 (sc), vehicle: steriod suspending solution 96 % of control | dose: 200.0 mg/kg/injection, schedule: Q04DX003 (sc), vehicle: steriod suspending solution 93 % of control | dose: 400.0 mg/kg/injection, schedule: Q04DX003 (sc), vehicle: steriod suspending solution 93 % of control

CO[C@]12[C@@H](COC(=O)NCCO)C3=C(C(=O)C(C)=C(N)C3=O)N1C[C@@H]1[C@H]2N1C (stereo not given in full)
inactive: [8] 112 % of control

CCCS(=O)[O-].CCCS(=O)[O-].[Zn+2]
inactive: [8] 104 % of control

CC1(C)N=C(N)Nc2nnc(-c3ccc(Cl)cc3)n21
inactive: [9] 97 % of control | [10] 97 % of control | [11] 94 % of control

COC(=O)C[As+](c1ccccc1)(c1ccccc1)c1ccccc1
inactive: dose: 38.0 mg/kg/injection, schedule: Q04DX003 (ip), vehicle: saline 91 % of control | dose: 75.0 mg/kg/injection, schedule: Q04DX003 (ip), vehicle: saline 100 % of control | dose: 150.0 mg/kg/injection, schedule: Q04DX003 (ip), vehicle: saline 96 % of control

COc1cccc(/C=C/c2nc3ccccc3nc2/C=C/c2cccc(OC)c2OC)c1OC
inactive: dose: 50.0 mg/kg/injection, schedule: Q01DX009 (ip), vehicle: Klucel (hydroxypropylcellulose) (HPC) 95 % of control | [1] 92 % of control | [3] 101 % of control

ClCCN(CCCl)CCCN1c2ccccc2Sc2ccc(Cl)cc21
inactive: dose: 1.56 mg/kg/injection, schedule: Q01DX009 (ip), vehicle: saline with Tween-80 100 % of control | dose: 3.12 mg/kg/injection, schedule: Q01DX001 (ip), vehicle: saline with Tween-80 105 % of control | dose: 3.12 mg/kg/injection, schedule: Q01DX009 (ip), vehicle: saline with Tween-80 112 % of control | dose: 6.25 mg/kg/injection, schedule: Q01DX001 (ip), vehicle: saline with Tween-80 103 % of control | dose: 6.25 mg/kg/injection, schedule: Q01DX009 (ip), vehicle: saline with Tween-80 110 % of control | dose: 6.25 mg/kg/injection, schedule: Q04DX003 (ip), vehicle: saline with Tween-80 102 % of control | dose: 12.5 mg/kg/injection, schedule: Q01DX001 (ip), vehicle: saline with Tween-80 108 % of control | dose: 12.5 mg/kg/injection, schedule: Q01DX009 (ip), vehicle: saline with Tween-80 112 % of control | dose: 12.5 mg/kg/injection, schedule: Q04DX003 (ip), vehicle: saline with Tween-80 107 % of control | dose: 25.0 mg/kg/injection, schedule: Q04DX003 (ip), vehicle: saline with Tween-80 110 % of control | dose: 50.0 mg/kg/injection, schedule: Q04DX003 (ip), vehicle: saline with Tween-80 122 % of control

CC1(C)C2CCC(=O)C1C2 (stereo not given)
inactive: [9] 101 % of control | [10] 96 % of control | [11] 96 % of control

CC(C)(N)COC(=O)c1ccccc1C(=O)O
inactive: [7] 91 % of control | dose: 200.0 mg/kg/injection, schedule: Q01DX001 (ip), vehicle: saline 96 % of control | dose: 400.0 mg/kg/injection, schedule: Q01DX001 (ip), vehicle: saline 94 % of control

Cc1ccc(S(=O)(=O)N2CCN(S(=O)(=O)c3ccc(C)c([N+](=O)[O-])c3)CC2)cc1[N+](=O)[O-]
inactive: dose: 3.12 mg/kg/injection, schedule: Q01DX009 (ip), vehicle: clinical formulation 103 % of control | dose: 6.25 mg/kg/injection, schedule: Q01DX009 (ip), vehicle: clinical formulation 100 % of control | dose: 6.25 mg/kg/injection, schedule: Q04DX003 (ip), vehicle: clinical formulation 103 % of control | dose: 12.5 mg/kg/injection, schedule: Q01DX009 (ip), vehicle: clinical formulation 107 % of control | dose: 12.5 mg/kg/injection, schedule: Q04DX003 (ip), vehicle: clinical formulation 108 % of control | dose: 25.0 mg/kg/injection, schedule: Q01DX009 (ip), vehicle: clinical formulation 115 % of control | dose: 25.0 mg/kg/injection, schedule: Q04DX003 (ip), vehicle: clinical formulation 116 % of control | dose: 50.0 mg/kg/injection, schedule: Q01DX009 (ip), vehicle: clinical formulation 95 % of control | dose: 50.0 mg/kg/injection, schedule: Q04DX003 (ip), vehicle: clinical formulation 124 % of control

c1ccc(C2=NOC(c3ccccc3)C2)cc1 (stereo not given)
inactive: dose: 75.0 mg/kg/injection, schedule: Q01DX009 (ip), vehicle: Klucel (hydroxypropylcellulose) (HPC) 105 % of control | dose: 75.0 mg/kg/injection, schedule: Q04DX003 (ip), vehicle: Klucel (hydroxypropylcellulose) (HPC) 95 % of control | dose: 150.0 mg/kg/injection, schedule: Q01DX009 (ip), vehicle: Klucel (hydroxypropylcellulose) (HPC) 105 % of control | dose: 150.0 mg/kg/injection, schedule: Q04DX003 (ip), vehicle: Klucel (hydroxypropylcellulose) (HPC) 100 % of control | dose: 300.0 mg/kg/injection, schedule: Q01DX009 (ip), vehicle: Klucel (hydroxypropylcellulose) (HPC) 100 % of control | dose: 300.0 mg/kg/injection, schedule: Q04DX003 (ip), vehicle: Klucel (hydroxypropylcellulose) (HPC) 95 % of control

COc1ccc(OC)c(NC(=O)Nc2ccc(F)cc2)c1
inactive: dose: 12.5 mg/kg/injection, schedule: Q01DX001 (ip), vehicle: carboxymethylcellulose (CMC) 98 % of control | dose: 12.5 mg/kg/injection, schedule: Q01DX009 (ip), vehicle: carboxymethylcellulose (CMC) 92 % of control and 94 % of control | dose: 12.5 mg/kg/injection, schedule: Q04DX002 (ip), vehicle: carboxymethylcellulose (CMC) 110 % of control | dose: 12.5 mg/kg/injection, schedule: Q04DX003 (ip), vehicle: carboxymethylcellulose (CMC) 95 % of control | dose: 25.0 mg/kg/injection, schedule: Q01DX001 (ip), vehicle: carboxymethylcellulose (CMC) 103 % of control | dose: 25.0 mg/kg/injection, schedule: Q01DX009 (ip), vehicle: carboxymethylcellulose (CMC) 95 % of control and 99 % of control | dose: 25.0 mg/kg/injection, schedule: Q04DX002 (ip), vehicle: carboxymethylcellulose (CMC) 98 % of control and 100 % of control | dose: 25.0 mg/kg/injection, schedule: Q04DX003 (ip), vehicle: carboxymethylcellulose (CMC) 91 % of control | dose: 50.0 mg/kg/injection, schedule: Q01DX001 (ip), vehicle: carboxymethylcellulose (CMC) 95 % of control | dose: 50.0 mg/kg/injection, schedule: Q01DX009 (ip), vehicle: carboxymethylcellulose (CMC) 92 % of control and 89 % of control | dose: 50.0 mg/kg/injection, schedule: Q04DX002 (ip), vehicle: carboxymethylcellulose (CMC) 97 % of control | dose: 50.0 mg/kg/injection, schedule: Q04DX003 (ip), vehicle: carboxymethylcellulose (CMC) 93 % of control

c1cc2ccc3ccc[n+]4c3c2[n+](c1)CC4
inactive: [8] 103 % of control

O=Nc1ccc2ccccc2c1N=Nc1ccccc1C(=O)O
inactive: [1] 101 % of control | [3] 100 % of control | [5] 103 % of control
